Where a name gives a salt, the structure may show the parent alone.

Experimental findings from US12398130B2, “Acid addition salts of piperazine derivatives” (Asceneuron SA, priority 2016, dated 2025) are described below.

The data set is described as follows: Visual aqueous solubility. Type of data set: physicochemical. To be noted: water added in portions to ~10 mg, assessed visually after brief equilibration. How it is done:
The salts and free base (˜10 mg) were weighed into glass vials and water was added in 0.1 mL portions up to 3 mL and 1 mL portions thereafter. Solubility was assessed visually following a brief period of equilibration.

On to `CC(=O)Nc1nnc(N2CCN([C@@H](C)c3ccc4c(c3)OCO4)CC2)s1` [Example 69, (S)—N-(5-(4-(1-(benzo[d][1,3]dioxol-5-yl)ethyl)piperazin-1-yl)-1,3,4-thiadiazol-2-yl)acetamide], for which the Visual aqueous solubility (listed as Free base) is given as less than 0.5 mg/mL.

For the compound `CC(=O)Nc1nnc(N2CCN([C@@H](C)c3ccc4c(c3)OCO4)CC2)s1` [L-Tartrate salt, (S)—N-(5-(4-(1-(benzo[d][1,3]dioxol-5-yl)ethyl)piperazin-1-yl)-1,3,4-thiadiazol-2-yl)acetamide], the Visual aqueous solubility is given as approximately 20 mg/mL.

Compound `CC(=O)Nc1nnc(N2CCN([C@@H](C)c3ccc4c(c3)OCO4)CC2)s1` [Hydrochloride salt, (S)—N-(5-(4-(1-(benzo[d][1,3]dioxol-5-yl)ethyl)piperazin-1-yl)-1,3,4-thiadiazol-2-yl)acetamide] showed a Visual aqueous solubility of approximately 4.5 mg/mL.

`CC(=O)Nc1nnc(N2CCN([C@@H](C)c3ccc4c(c3)OCO4)CC2)s1` [Maleate salt, (S)—N-(5-(4-(1-(benzo[d][1,3]dioxol-5-yl)ethyl)piperazin-1-yl)-1,3,4-thiadiazol-2-yl)acetamide] yielded a Visual aqueous solubility of approximately 4.5 mg/mL.
